Patent publication US8785637B2, “Carboxamide-substituted dyes for analytical applications” (ATTO-TEC GmbH, priority 2002, dated 2014)

Assay: Solubility in water
Assay type: physicochemical
Details: sugar residue as R5 or/and R6

CCN(CC)c1ccc2c(-c3ccccc3C(=O)N(C)CC(O)C(O)C(O)C(O)CO)c3ccc(=[N+](CC)CC)cc-3oc2c1 (stereo not shown) [Compound 51]
solubility in water: high solubility in water
